For assay [1], the target named is human relaxin/insulin-like family peptide receptor 4 (RXFP4) on CHO-K1 cells (human) (UniProt Q8TDU9).
For assay [2], the target named is T1, human RXFP4 (hRXFP4) (Homo sapiens, UniProt Q8TDU9). The experiment in a line: inhibition of forskolin-stimulated cAMP accumulation, TR-FRET. The class given is cell-based. The following applies: agonist; 500 nM forskolin, 500 uM IBMX, 40 min, RT.
Another assay deals with T2, mouse RXFP4 (mRXFP4) (Mus musculus, UniProt Q7TQP4).
T2 sequence (Q7TQP4 1-414): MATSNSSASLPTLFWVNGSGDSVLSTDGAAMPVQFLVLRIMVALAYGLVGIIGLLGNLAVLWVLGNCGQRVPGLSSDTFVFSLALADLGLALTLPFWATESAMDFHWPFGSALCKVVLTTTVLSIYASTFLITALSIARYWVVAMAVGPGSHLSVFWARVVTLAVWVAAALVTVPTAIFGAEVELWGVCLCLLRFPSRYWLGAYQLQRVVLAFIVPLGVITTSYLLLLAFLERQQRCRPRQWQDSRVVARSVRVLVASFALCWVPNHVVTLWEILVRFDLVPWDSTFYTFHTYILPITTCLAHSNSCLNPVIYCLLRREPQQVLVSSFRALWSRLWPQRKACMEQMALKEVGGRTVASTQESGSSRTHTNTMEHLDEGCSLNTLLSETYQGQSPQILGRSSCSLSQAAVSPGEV
Described as above. The following applies: agonist; 500 nM forskolin, 500 uM IBMX, 40 min, RT. The class given is cell-based.

Assay [3] deals with T1, human RXFP4 (hRXFP4). Kind of assay: Eu-mINSL5 competition binding, time-resolved fluorescence, CHO-RXFP4 cells. The class given is cell-based. The following applies: n = 3; one-site fit; competitive with Eu-labelled INSL5.

T1 sequence (Q8TDU9 whole entry): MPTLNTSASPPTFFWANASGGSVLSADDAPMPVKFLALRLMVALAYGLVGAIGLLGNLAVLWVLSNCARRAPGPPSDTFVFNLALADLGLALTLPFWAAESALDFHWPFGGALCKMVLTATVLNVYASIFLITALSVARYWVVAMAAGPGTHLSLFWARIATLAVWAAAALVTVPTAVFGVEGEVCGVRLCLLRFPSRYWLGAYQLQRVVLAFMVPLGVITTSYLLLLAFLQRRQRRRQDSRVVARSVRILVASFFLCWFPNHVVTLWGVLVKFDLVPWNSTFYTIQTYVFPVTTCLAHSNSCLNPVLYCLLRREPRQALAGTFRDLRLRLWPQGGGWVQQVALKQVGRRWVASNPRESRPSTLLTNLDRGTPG
Chain of human relaxin/insulin-like family peptide receptor 4 (RXFP4) on CHO-K1 cells (human) (Q8TDU9 whole entry): as above
Chain of Human INSL5 (insulin-like peptide 5) (ligand) (Q9Y5Q6 23-135): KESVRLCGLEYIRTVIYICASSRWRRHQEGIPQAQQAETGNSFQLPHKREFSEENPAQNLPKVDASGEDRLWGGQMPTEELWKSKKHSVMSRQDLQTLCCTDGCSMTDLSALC

In turn, R3/I5 (ligand) gave a pEC50, inhibition of forskolin-stimulated cAMP production in hRXFP4-CHO cells in assay [1] of 7.52. As for `O=C1CCCC2=C1[C@H](c1ccc(O)cc1)n1nc(-c3ccccc3Cl)nc1N2` [JK1], the pEC50 at human RXFP4 (hRXFP4) [2] is given as 4.76 ± 0.04 -log M; on mouse RXFP4 (mRXFP4), 4.60 ± 0.07 -log M. The pKi on human RXFP4 (hRXFP4) [3] is listed as 4.48 ± 0.09 -log M. For the molecule “Human INSL5 (insulin-like peptide 5) (ligand)”, in assay [1], the pEC50, inhibition of forskolin-stimulated cAMP production in hRXFP4-CHO cells came out at 8.12.

For the origin of these results see article PMC7608467 (Acta Pharmacologica Sinica, 2020).
